Experimental data published in PMC6773865, “Functional recruitment of dynamin requires multimeric interactions for efficient endocytosis” (Nature Communications, 2019).

Tested on: clathrin mediated endocytosis (TfR-SEP) in NIH 3T3 cells
Assay: ppH assay combined with patch-clamp dialysis
Type: cell-based
Conditions: for inhibition of endocytosis on dialysis: peptide dialysed through patch pipette, 3T3 cells, ppH assay; for event frequency ratio f = FWC/FCA: event frequency 8–10 min whole cell over 3–5 min cell attached, same cell, average ± SEM, SEM
Description: To do so, we monitored cellular endocytic activity using the ppH assay with new developments for fully automated analysis on a large number of cells (See “Methods” and Supplementary Fig. 4). We combined this assay, which monitors in real time the endocytic activity of cells, with the patch-clamp technique in order to dialyse the relevant peptide at a known concentration inside the cellular cytoplasm to inhibit endocytosis acutely. Each recording consisted of 5 min in cell-attached mode (CA) with no dialysis followed by 10 min in whole cell mode (WC) during which the inhibitors were dialysed (Fig. 5a, b). Each recording therefore had its own internal control condition, i.e., the cell-attached mode, from which we obtained the frequency ratio f = FWC/FCA, where F is the event frequency recorded during the indicated mode. Of note, the electrical parameters of patch clamp recordings were similar in all conditions (Supplementary Fig. 5). To assess the innocuousness of this assay, we monitored the endocytic activity of unperturbed cells vs. cells dialysed with a control solution (see methods for composition). Patching the cells minimally affected their endocytic activity over a 10 min period (event frequency f = 67.3 ± 4.3%, n = 60, vs. 90.7 ± 14.9% in no patching recordings, n = 8, p = 0.58).
NIH 3T3 cells (ECACC 93061524) were cultured in DMEM supplemented with 1% sodium pyruvate, 1% glutamax and 10% fetal calf serum (Invitrogen). Cells were incubated at 37 °C in 5% CO2 until use and subcultured every 2 to 4 days for maintenance up to passage 20. Cells were transfected with 1.5 μg of TfR-SEP plasmid 24 h prior to imaging and patch clamp. Care was taken to find the right balance between sufficient fluorescent signal to allow for proper imaging and reasonable overexpression to diminish potential saturation artefacts. Best results were obtained using Fugene 6 (Promega) as the transfection reagent but Lipofectamine 2000 (Invitrogen) has also been used in this study due to a temporary arrest of Fugene 6 production by the provider. All transfections were performed according to the manufacturers’ recommendations. Four to eight hours after transfection, cells were seeded at a density of ~70,000 cells ml^−1 on 18 mm glass coverslips coated with poly-L-lysine (3 min application of 0.1 mM polylysine (Sigma P2636) in borate buffer, pH 8.0 followed by a quick rinse in PBS) and used the next day.
Fast solution exchange was controlled by electro-valves (Lee company) connected to a theta glass pipette (TG150, Harvard Apparatus) pulled to ∼100-μm tip size using a vertical puller (Narishige, World Precision Instruments) placed above the recorded cell. Cells were alternatively perfused with HEPES or MES buffered saline solutions (HBS/MBS) containing (in mM): 135 NaCl, 5 KCl, 0.4 MgCl2, 1.8 CaCl2, 1 D-glucose and 20 HEPES or MES. The pH was adjusted to 7.4 or 5.5 using NaOH and osmolarity to 310–315 mOsm L^−1 with NaCl.
Cells were patched with pipettes made of borosilicate glass (GC150F, Harvard Apparatus) and pulled with a vertical Narishige puller (World Precision Instruments). The solution contained (in mM): 130–140 KCH3SO3, 1 EGTA, 0.1 CaCl2, 10–20 HEPES, 4 ATP (sodium or magnesium salt), 0.4 Na-GTP (or GTPγS when indicated), 5 phosphocreatine and 3 sodium ascorbate. pH was adjusted to 7.2 using KOH and osmolarity to ~300 mOsm L^−1. Sodium ascorbate was omitted in earlier recordings but was added for better stability. Chloride ions either came from 2 mM KCl, 10 mM NaCl or 4 mM MgCl2 (when Na-ATP was used) in various trials. All salts were purchased from Sigma-Aldrich. Cells were voltage-clamped at −60 mV with an EPC10 amplifier (HEKA) with series resistance and cell capacitance estimation every 4 s in the whole cell mode. The digital triggers of the amplifier were used to drive the electrovalves for pH changes. […]

Compound | inhibition of endocytosis on dialysis | event frequency ratio f = FWC/FCA (100 µM peptide in patch pipette, n = 13 (D15)) | event frequency ratio f = FWC/FCA (1 mM peptide in patch pipette, n = 22 (D15), 15 (D44), 6 (dD15-C))
CC(=O)N[C@@H](Cc1ccc(O)cc1)C(=O)N[C@@H](CCCCn1cc(CCC(=O)NCCCOCCOCCOCCCNC(=O)CCC(=O)NCCCOCCOCCOCCCNC(=O)CCC(=O)NCCCOCCOCCOCCCNC(=O)CCC(=O)N2CCC[C@H]2C(=O)N2CCC[C@H]2C(=O)N2CCC[C@H]2C(=O)N[C@@H](CCC(N)=O)C(=O)N[C@H](C(=O)N2CCC[C@H]2C(=O)N[C@@H](CO)C(=O)N[C@@H](CCCNC(=N)N)C(=O)N2CCC[C@H]2C(=O)N[C@@H](CC(N)=O)C(=O)N[C@@H](CCCNC(=N)N)C(=O)N[C@@H](C)C(=O)N2CCC[C@H]2C(=O)N2CCC[C@H]2C(=O)NCC(N)=O)C(C)C)nn1)C(=O)NCCCOCCOCCOCCCNC(=O)CCC(=O)NCCCOCCOCCOCCCNC(=O)CCC(=O)NCCCOCCOCCOCCCNC(=O)CCC(=O)N1CCC[C@H]1C(=O)N1CCC[C@H]1C(=O)N1CCC[C@H]1C(=O)N[C@@H](CCC(N)=O)C(=O)N[C@H](C(=O)N1CCC[C@H]1C(=O)N[C@@H](CO)C(=O)N[C@@H](CCCNC(=N)N)C(=O)N1CCC[C@H]1C(=O)N[C@@H](CC(N)=O)C(=O)N[C@@H](CCCNC(=N)N)C(=O)N[C@@H](C)C(=O)N1CCC[C@H]1C(=O)N1CCC[C@H]1C(=O)NCC(N)=O)C(C)C [dD15-N] | clearly increased efficiency over D15 |  | 
Ac-YPPPQVPSRPNRAPPG-NH2 [D15, reference compound] | only partial | 59.0 ± 5.0% | 38.2 ± 3.9%
